Results taken from patent US5508293A, “Pyridinecarboxyimidamide compounds and the use thereof” (Kirin Beer Kabushiki Kaisha, priority 1992, dated 1996).

How the values were obtained:
[1] = tested on: spontaneously hypertensive rats (SHR), mean blood pressure; experiment: Antihypertensive activities on spontaneously hypertensive rat (intravenously); type: in vivo, rat (male spontaneously hypertensive rats; conditions: iv, anesthetized male SHR, i.v., cumulative dosing, read-out: ED20 (the dose which lowered the blood pressure by 20%)
Procedure: Animals were anesthetized with urethane: α-chloralose.
A cannula was inserted into the carotid artery for measuring the mean blood pressure via a pressure transducer. A test compound was cumulatively administered through the cannula inserted into the femoral vein with an interval of 30 minutes. Variation of blood pressure was determined as the percentage change in the blood pressure before administration of the test compound, and the ED20 (the dose which lowered the blood pressure by 20%) was calculated from a dose-response curve.

[2] = tested on: spontaneously hypertensive rats (SHR), systolic blood pressure; experiment: Time course of antihypertensive activity in conscious SHR (oral), Compound No. 16; type: in vivo, rat (male spontaneously hypertensive rats; conditions: 3.0 mg/kg oral
Procedure: Time course of antihypertensive activity of 5-amino-N-cyano-N'-(2-phenethyl)pyridinecarboximidamide (Compound No. 16) was examined.
(§1) Systolic blood pressure (SBP) was measured with the tail cuff method.
The compound No. 16 was dissolved in an equivalent mixture of polyethylene glycol 200 and physiological saline, and administered orally with the aid of an oral probe. SBP was measured before administration and 1, 2, 4, 6, 8, 12 and 24 hours after administration of the compound. The results were expressed as the percentage change in SBP obtained before administration.

[3] = tested on: spontaneously hypertensive rats (SHR), systolic blood pressure; experiment: Antihypertensive effects on conscious SHR (oral), Compound Nos. 18 and 19; type: in vivo, rat (male spontaneously hypertensive rats; conditions: 3.0 mg/kg oral
Procedure: Antihypertensive effects of- 5-amino-N-cyano-N'-(2-nitroxyethyl)-3-pyridinecarboximidamide (N-cyano-N'-(2-nitroxyethyl)-5-(3-aminopyridine)carboximidamide; Compound No. 18) and N-cyano-5-ethylamino-N'-(2-nitroxyethyl)-3-pyridinecarboximidamide (N-cyano-N'-(2-nitroxyethyl)-5-[3-(N-ethylaminopyridine)]carboximidamide; Compound No. 19) were assessed by comparison with those of the methanesulfonate salt of N-cyano-N'-(2-nitroxyethyl)-3-pyridinecarboximidamide (compound described in Japanese Patent Laid-Open Publication No. 163061/1991) as a reference compound which is thought to be a well-known compound most similar to the compound of the present invention.
as §1
Each of the compound Nos. 18 and 19 was dissolved in an equivalent mixture of polyethylene glycol 200 and physiological saline, and the reference compound was dissolved in physiological saline. The compounds were administered orally with the aid of an oral probe. SBP was measured before administration and 1, 2, 4, 6, 8, 12 and 24 hours after administration of the compound. The results were expressed as the percentage change in SBP observed before administration.

[4] = tested on: rat aorta; experiment: Vasodilating effect in a rat aorta (relaxation of KCl-induced contraction); set-up: species or system rat (male Wistar rat); conditions: isolated rat thoracic aorta, 40 mM KCl; read-out: IC50 (concentration for inhibiting 50% of the tension induced by KCl)
Procedure: Physiological effect of the compound of the present invention was tested by the method with use of an isolated rat aorta.
Thoracic aorta was isolated from a male Wistar rat (body weight, 250-350 g) exsanguinated to death for obtaining ring preparations having a width of 3 mm. The preparations were suspended into an organ bath filled with the Krebs-Ringer solution through which a mixed gas of 95% O2 and 5% CO2 had been aerated at 37° C. A resting tension of 1 g was applied to the preparation. After the tension in the preparation was stabilized, the solution in the organ bath was exchanged with an equimolar solution containing 40 mM KC1 to increase the tension of the preparation. When the tension induced by KCl become stable, the test compound was cumulatively added to the organ bath to relax the preparation. Relaxation response was expressed as percentage inhibition of KCl-induced contraction, and the IC50 value (concentration for inhibiting 50% of the tension induced by KCl) was calculated from the average concentration-response curve by the Probit method.

[5] = tested on: beagles, blood pressure; experiment: Antihypertensive activity on anesthetized beagles (intravenously); type: in vivo, dog (beagles); conditions: for Antihypertensive activity (%): i.v.
Procedure: Antihypertensive activities of 5-amino-N-cyano-N'-[2-(2-chlorophenyl)ethyl]-3-pyridinecarboximidamide (N-cyano-N'-[2-(2-chlorophenyl)ethyl]-5-(3aminopyridine)carboximidamide; Compound No. 6) according to the present invention was assessed by comparison with those of N-cyano-N'-[2-(2-chlorophenyl)ethyl]-3-pyridinecarboximidamide which is thought to be a wellknown compound most similar to the compound of the present invention (see Japanese Patent Laid-Open Publication No. 163061/1991).
Experiments were carried out with beagles (body weight, 9.2-10.4 kg) under anesthetization by intravenous administering 30 mg/kg of pentobarbital sodium. A cannula was inserted into the right femoral artery for measuring blood pressure. […]

[6] = tested on: coronary blood flow (circumflex branch of the left coronary artery), beagles; experiment: Coronary dilating effect on beagles (coronary blood flow, anesthetized dog); type: in vivo; conditions: i.v., 10 Mg/Kg
Procedure: Coronary dilating effects of 5-amino-N-cyano-N'-(2-nitroxyethyl)-3-pyridinecarboximidamide (Compound No. 18) of the present invention was assessed by comparison with those of N-cyano-N'-(2-nitroxyethyl)-3-pyridinecarboximidamide methanesulfonic acid (compound described in Japanese Patent Laid-Open Publication No. 163061/1991) which is thought to be a well-known compound most similar to the compound of the present invention.
A dog (body weight, 8.3 kg) was anesthetized with 30 mg/kg of pentobarbital sodium intravenously. Respiration was maintained with room air through a cuffed endotracheal tube. The drug was administered through the femoral vein, and the coronary blood flow was measured by a probe attached to the circumflex branch of the left coronary artery.

Cc1cncc(C(=NCCc2ccccc2Cl)NC#N)c1 [Compound No. 1, N-cyano-N'-[2-(2-chlorophenyl)ethyl]-5-methyl-3-pyridinecarboximidamide]
ED20 [1]: 0.0171 mg/kg

N#CN=C(NCCc1ccccc1)c1cncc(N)c1 [Compound No. 16, 5-amino-N-cyano-N'-(2-phenethyl)-3-pyridine-carboximidamide]
decrease in blood pressure [2]: decrease in blood pressure was observed | duration of the antihypertensive effect [2]: ≥ 12 h | percentage change in SBP obtained before administration ([2]; 1 hour after administration): -45.3% | percentage change in SBP obtained before administration ([2]; 2 hour after administration): -23.9% | percentage change in SBP obtained before administration ([2]; 4 hour after administration): -42.3% | percentage change in SBP obtained before administration ([2]; 6 hour after administration): -27.9% | percentage change in SBP obtained before administration ([2]; 8 hour after administration): -22.8% | percentage change in SBP obtained before administration ([2]; 12 hour after administration): -15.1% | percentage change in SBP obtained before administration ([2]; 24 hour after administration): -8.2% | ED20 [1]: 0.028 mg/kg

CCNc1cncc(C(=NCCO[N+](=O)[O-])NC#N)c1 [Compound No. 19, N-cyano-5-ethylamino-N'-(2-nitroxyethyl)-3-pyridinecarboximidamide]
decrease in blood pressure / antihypertensive effect [3]: decrease in blood pressure was observed | duration of the antihypertensive effect [3]: ≥ 12 h | percent change in SBP observed before administration of the compound ([3]; 1 hour after administration): -60.2% | percent change in SBP observed before administration of the compound ([3]; 2 hour after administration): -47.2% | percent change in SBP observed before administration of the compound ([3]; 4 hour after administration): -24.3% | percent change in SBP observed before administration of the compound ([3]; 6 hour after administration): -23.9% | percent change in SBP observed before administration of the compound ([3]; 8 hour after administration): -25.9% | percent change in SBP observed before administration of the compound ([3]; 12 hour after administration): -27.7% | percent change in SBP observed before administration of the compound ([3]; 24 hour after administration): -9.8% | IC50 [4]: 10 µM

N#CNC(=NCCc1ccccc1Cl)c1cccnc1 [N-cyano-N'-[2-(2-chlorophenyl)ethyl]-3-pyridinecarboximidamide, reference compound]
decrease in blood pressure ([5]; 10 and 30 μg/kg): decrease in blood pressure was observed | recovery of the decrease in blood pressure after administration ([5]; both doses, 10 and 30 μg/kg): ≤ 10 min | Antihypertensive activity (%) ([5]; dose 3 μg/kg, 0 min after dosage): 0.0% | Antihypertensive activity (%) ([5]; dose 3 μg/kg, 1 min after dosage): 0.0% | Antihypertensive activity (%) ([5]; dose 3 μg/kg, 2 min after dosage): 1.9% | Antihypertensive activity (%) ([5]; dose 3 μg/kg, 3 min after dosage): 1.9% | Antihypertensive activity (%) ([5]; dose 10 μg/kg, 0 min after dosage): 0.0% | Antihypertensive activity (%) ([5]; dose 10 μg/kg, 1 min after dosage): -23.4% | Antihypertensive activity (%) ([5]; dose 10 μg/kg, 2 min after dosage): -17.7% | Antihypertensive activity (%) ([5]; dose 10 μg/kg, 3 min after dosage): -13.1% | Antihypertensive activity (%) ([5]; dose 10 μg/kg, 5 min after dosage): -4.7% | Antihypertensive activity (%) ([5]; dose 30 μg/kg, 0 min after dosage): 0.0% | Antihypertensive activity (%) ([5]; dose 30 μg/kg, 1 min after dosage): -41.7% | Antihypertensive activity (%) ([5]; dose 30 μg/kg, 2 min after dosage): -39.8% | Antihypertensive activity (%) ([5]; dose 30 μg/kg, 3 min after dosage): -33.3% | Antihypertensive activity (%) ([5]; dose 30 μg/kg, 5 min after dosage): -16.7% | Antihypertensive activity (%) ([5]; dose 30 μg/kg, 7.5 min after dosage): -2.8% | Antihypertensive activity (%) ([5]; dose 30 μg/kg, 10 min after dosage): -0.9%

N#CNC(=NCCO[N+](=O)[O-])c1cccnc1 [Reference Compound, N-cyano-N'-(2-nitroxyethyl)-3-pyridinecarboximidamide, reference compound]
decrease in blood pressure / antihypertensive effect [3]: antihypertensive effect was also observed | duration of the antihypertensive effect [3]: about 6 hours | percent change in SBP observed before administration of the compound ([3]; 1 hour after administration): -55.9% | percent change in SBP observed before administration of the compound ([3]; 2 hour after administration): -41.5% | percent change in SBP observed before administration of the compound ([3]; 4 hour after administration): -10.6% | percent change in SBP observed before administration of the compound ([3]; 6 hour after administration): -6.8% | increase of coronary blood flow [6]: increase in coronary blood flow was observed | time for which the increase of coronary blood flow was retained [6]: ≤ 10 min | percent change of coronary blood flow as compared with the blood flow before administration ([6]; 1 min after dosage): 219.0% | percent change of coronary blood flow as compared with the blood flow before administration ([6]; 3 min after dosage): 42.9% | percent change of coronary blood flow as compared with the blood flow before administration ([6]; 5 min after dosage): 14.3% | percent change of coronary blood flow as compared with the blood flow before administration ([6]; 10 min after dosage): 0.0%

CCc1cncc(C(=NCCc2ccccc2Cl)NC#N)c1 [compound 2, N-cyano-N'-[2-(2-chlorophenyl)ethyl]-5-ethyl-3-pyridinecarboximidamide]
ED20 [1]: 0.007 mg/kg

N#CNC(=NCCc1ccccc1Cl)c1cncc(CO)c1 [compound 3, N-cyano-N'-[2-(2-chlorophenyl)ethyl]-5-hydroxymethyl-3-pyridinecarboximidamide]
ED20 [1]: 0.0087 mg/kg

N#CNC(=NCCc1ccccc1Cl)c1ccc(N)nc1 [compound 5, 6-amino-N-cyano-N'-[2-(2-chlorophenyl)ethyl]-3-pyridinecarboximidamide]
ED20 [1]: 0.0333 mg/kg

CC(=O)Nc1cncc(C(=NC#N)NCCc2ccccc2Cl)c1 [compound 7, 5-acetamide-N-cyano-N'-[2-(2-chlorophenyl)-ethyl]-3-pyridinecarboximidamide]
ED20 [1]: 0.0123 mg/kg

CCNc1cncc(C(=NCCc2ccccc2Cl)NC#N)c1 [compound 10, N-cyano-N'-[2-(2-chlorophenyl)ethyl]-5-ethylamino-3-pyridinecarboximidamide]
ED20 [1]: 0.0079 mg/kg

N#CNC(=NCCO[N+](=O)[O-])c1ccc(N)nc1 [compound 20, 6-amino-N-cyano-N'-(2-nitroxyethyl)-3-pyridinecarboximidamide]
IC50 [4]: 2.7 µM

CCN(CC)c1ccc(C(=NCCO[N+](=O)[O-])NC#N)cn1 [compound 21, N-cyano-6-diethylamino-N'-(2-nitroxyethyl)-3-pyridinecarboximidamide]
IC50 [4]: 4.6 µM
